Test results from patent publication US20110060028A1, “COMBINATION THERAPY” (UNIVERSITY OF YORK, priority 2007, published 2011).
d = 2'-deoxy (DNA)

Key:
Format in all cases: cell-based, human
HCT116 p53+/+ cells = assay: Apoptosis (annexin-V staining, phase contrast); conditions: 24 h drug exposure
Description: (§1) Phase contrast digital images were captured using an Axiovert 200M microscope (Zeiss). Apoptotic cells were identified by flow cytometry using annexin-V-Fluos (Roche) following the manufacturer's protocol.
(§2) Cells for transfection and/or drug treatment were plated at a density of 6×10^4 (ARPE-19) or 1.4×10^5 (HCT116) per well in 6-well plates. For the experiment in FIG. 3a, ARPE-19 cells were plated at a density of 4×10^4 per well. Transfections were performed 24 hours post-plating in Opti-MEM (Gibco) using Oligofectamine (Invitrogen) according to the manufacturer's instructions. Chemically synthesized, HPLC-purified siRNAs were obtained from Qiagen or Dharmacon. SIRT1 siRNA sequence has been described^27. JNK1 siRNA sequences were: Sense 5′-CUCCACCACCAAAGAUCCC(dTdT)-3′, antisense 5′-GGGAUCUUUGGUGGUGGAG(dTdT)-3′. JNK2 siRNA sequences were: Sense 5′-GAGCUGGUGAAAGGUUGUG(dTdT)-3′, antisense 5′-CACAACCUUU CACCAGCUC(dTdT)-3′. Specificities of SIRT1 siRNA, JNK1 sIRNA and JNK2 siRNA have been validated previously¢ (Ahmed and Milner, in submission). Cells were harvested for analysis 48 h post-transfection, except where indicated otherwise. For drug treatment, drugs were applied by complete media replacement 48 h post-plating at final concentration 375 μM (5-FU) or 425 μM (uridine). […]

p53 = assay: Immunoblotting of p53 and p53 K382Ac
Description: (§3) Epithelial cancer cell lines RKO, LoVo, DLD-1, HT29, U2OS, SAOS-2, MCF7, HTB-126, HT-1080 and SiHa were obtained from ATCC. Isogenic colorectal carcinoma cell lines HCT116 p53+/+ and HCT116 p53−/− were a kind gift of Bert Vogelstein. Non-cancer cells were normal diploid fibroblasts (NDF) and ARPE-19 immortalised retinal epithelial cells (ATCC), and normal human embryonic keratinocytes (NHEK, Invitrogen). Cells were cultured according to the supplier's protocols. siRNA sequences, transfection protocols and target validations were as described (Ref. 27 and Methods). For drug treatments, cells were treated 48 hours post-plating with final concentration of 5-FU (375 OM) and uridine (425 OM) as indicated and harvested 24 h later. For combined transfection/drug treatment, drugs were applied 24 h post-transfection and cells harvested 24 h later. For time course analyses cells were harvested at indicated time points post-treatment.
(§4) Cells were prepared as described (Methods). For immunoblotting equivalent numbers of cells, or equivalent amounts of protein, were loaded in each lane. Antibodies were: Anti-SIRT1 (H-300, Santa Cruz), anti-phosphoserine27-SIRT1 (#2327, Cell Signaling), anti-phosphoserine47-SIRT1 (#2314, Cell Signaling), anti-actin (MAB1501, Chemicon), anti-p53 (00-1, Santa Cruz), anti-acetylated-p53-lysine382 (#2525, Cell Signaling), anti-JNK1 (F-3, Santa Cruz), anti-JNK2 (#4672, Cell Signaling). Visualisation of bound antibodies was by ECL, with quantitation by densitometry of signals within the linear range.
as §2, with “(uridine). Cells were harvested for analysis 24h following application of drugs, or at the indicated timepoints for time-course analysis.” for “(uridine).”

ARPE-19 cells = assay: Cell viability / apoptosis (annexin-V staining, phase contrast); conditions: 24 h drug exposure
Description: as §1, §2

laminA/C and GAPDH mRNAs = assay: Quantitative RT-PCR of laminA/C and GAPDH mRNAs; conditions: 5-FU for 24 h
Description: Epithelial cancer cell lines RKO, LoVo, DLD-1, HT29, U2OS, SAOS-2, MCF7, HTB-126, HT-1080 and SiHa were obtained from ATCC. Isogenic colorectal carcinoma cell lines HCT116 p53+/+ and HCT116 p53−/− were a kind gift of Bert Vogelstein. Non-cancer cells were normal diploid fibroblasts (NDF) and ARPE-19 immortalised retinal epithelial cells (ATCC), and normal human embryonic keratinocytes (NHEK, Invitrogen). Cells were cultured according to the supplier's protocols. siRNA sequences, transfection protocols and target validations were as described (Ref. 27 and Methods). […]
Cellular mRNAs were extracted for quantitative RT-PCR as previously described^27. Primers and thermal cycling conditions were as described^27 (Methods); quantifications were performed in triplicate. […]
Relative mRNA levels were quantitated by realtime RT-PCR. […] SIRT1 primers 5′-[…]-3′ and 5′-[…]-3′ were used in the thermal cycle: 50° C. for 30 minutes, 94° C. for 15 minutes, followed by 35 cycles of 94° C. for 30 seconds, 55° C. for 30 seconds, 72° C. for 30 seconds, then 75° C. for 15 seconds before the plate was read. JNK1 primers 5′-[…]-3′ and 5′-[…]-3′ were used in the thermal cycle: 50° C. for 30 minutes, 94° C. for 15 minutes, followed by 35 cycles of 94° C. for 30 seconds, 57° C. for 30 seconds, 72° C. for 30 seconds, then 75° C. for 15 seconds before the plate was read. […]

SIRT1 mRNA = assay: Quantitative RT-PCR of SIRT1 mRNA; conditions: for SIRT1 mRNA estimated t1/2: following administration of 5-FU
Description: as §3
Cellular mRNAs were extracted for quantitative RT-PCR as previously described^27. Primers and thermal cycling conditions were as described^27 (Methods); quantifications were performed in triplicate.
(§5) Cells for transfection and/or drug treatment were plated at a density of 6×10^4 (ARPE-19) or 1.4×10^5 (HCT116) per well in 6-well plates. For the experiment in FIG. 3a, ARPE-19 cells were plated at a density of 4×10^4 per well. Transfections were performed 24 hours post-plating in Opti-MEM (Gibco) using Oligofectamine (Invitrogen) according to the manufacturer's instructions. Chemically synthesized, HPLC-purified siRNAs were obtained from Qiagen or Dharmacon. SIRT1 siRNA sequence has been described^27. JNK1 siRNA sequences were: Sense 5′-CUCCACCACCAAAGAUCCC(dTdT)-3′, antisense 5′-GGGAUCUUUGGUGGUGGAG(dTdT)-3′. JNK2 siRNA sequences were: Sense 5′-GAGCUGGUGAAAGGUUGUG(dTdT)-3′, antisense 5′-CACAACCUUU CACCAGCUC(dTdT)-3′. Specificities of SIRT1 siRNA, JNK1 sIRNA and JNK2 siRNA have been validated previously¢ (Ahmed and Milner, in submission). Cells were harvested for analysis 48 h post-transfection, except where indicated otherwise. For drug treatment, drugs were applied by complete media replacement 48 h post-plating at final concentration 375 μM (5-FU) or 425 μM (uridine). Cells were harvested for analysis 24h following application of drugs, or at the indicated timepoints for time-course analysis. For combined transfection/drug experiments, drugs were applied approximately […] post-transfection. Cells from combined transfection/drug experiments were harvested for analysis after 24 hours of drug exposure (˜48 hours post-transfection).
Relative mRNA levels were quantitated by realtime RT-PCR. […] SIRT1 primers 5′-[…]-3′ and 5′-[…]-3′ were used in the thermal cycle: 50° C. for 30 minutes, 94° C. for 15 minutes, followed by 35 cycles of 94° C. for 30 seconds, 55° C. for 30 seconds, 72° C. for 30 seconds, then 75° C. for 15 seconds before the plate was read. JNK1 primers 5′-[…]-3′ and 5′-[…]-3′ were used in the thermal cycle: 50° C. for 30 minutes, 94° C. for 15 minutes, followed by 35 cycles of 94° C. for 30 seconds, 57° C. for 30 seconds, 72° C. for 30 seconds, then 75° C. for 15 seconds before the plate was read. JNK2 primers 5′-[…]-3′ and 5′-[…]-3′ were used in the thermal cycle: 50° C. for 30 minutes, 94° C. for 15 minutes, followed by 35 cycles of 94° C. for 30 seconds, 55° C. for 30 seconds, 72° C. for 30 seconds, then 75° C. for 15 seconds before the plate was read. All RT-PCR quantifications were performed in triplicate.

SIRT1 = assay: Immunoblotting of total SIRT1, SIRT1 S27P and SIRT1 S47P
Description: as §3, §4, §5
For preparation of total protein lysates, cell counts or protein assay was performed, with the method chosen consistent within each experiment. Cells were lysed in lysis buffer IPAMN (10 mM TRIS base pH 8.0, 140 mM NaCl, 2 mM CaCl2, 0.5% NP-40, 5 U ml^−1 micrococcal nuclease) for 3 minutes at room temperature followed by addition of 0.25× volumes of 6×SDS-PAGE sample buffer and brief heating to 90° C. Samples for protein assay were withdrawn before addition of 6×SDS-PAGE sample buffer, and assayed using BCA Protein Assay Kit (Pierce) according to the manufacturers instructions. Equivalent numbers of cells, or equivalent amounts of protein, were electrophoresed on 10% or 15% SDS-PAGE, electrobiotted to Protran membrane (Schleicher&Schuell) using a wet-blot transfer system, blocked for 1 hour at room temperature and probed with primary antibodies overnight at 4° C. […]

exogenous SIRT1 protein = assay: Exogenous SIRT1 expression after RNAi and cycloheximide time course, immunoblotting
From the text: FIG. 13 JNK-dependent phosphorylation at S27 stabilises exogenous SIRT1 protein. a. Schematic of experimental protocol for RNA′ followed by transfection with exogenous SIRT1 expression vector (see text). b. Exogenous expression of SIRT1 in intact HCT116 cells (lane 2), JNK2-depleted cells (lane 3) and JNK1-depleted cells (lane 4) detected by immunoblotting. Lane 1 =intact, non-transfected cells. Note that in both intact cells and JNK1-depleted cells the exogenous SIRT1 is phosphorylated on S27 and S47, whereas in JNK2-depleted cells S27P levels reflect endogenous SIRT1 (lanes 1 and 3, asterix), c, d. Time course analyses of SIRT1 protein levels and SIRT1 S27P following addition of cycloheximide in intact (panel c) and JNK2-depleted (panel d) HCT116 cells as indicated. e. SIRT1 protein levels at indicated times post treatment with cycloheximide (CHX) in intact cells (solid circles, solid line) and in JNK-depleted cells (open circles, dashed line).
To further explore the relationship between SIRT1 and JNK2 we expressed exogenous . SIRT1 in HCT116 p53+/+ cells in which JNK2 had been depleted by RNAI (Methods and FIG. 13a). When expressed in intact cells exogenous SIRT1 protein was phosphorylated at both S27 and S47 (FIG. 13b, lane 2). […] In addition total exogenous SIRT1 protein levels were reduced in JNK2-depleted cells (FIG. 13b, lane 3 cp. lane 2, SIRT1), consistent with reduced SIRT1 protein stability in the absence of S27 phosphorylation. […] S47 kinase/phosphatase activity. […] Thus JNK2, but not JNK1, is required for S27 phosphorylation and associated accumulation of SIRT1 protein.
Reduced accumulation of SIRT1 protein under these conditions is consistent with the premise that JNK2-dependent phosphorylation of SIRT1 at S27P stabilises the SIRT1 protein. This was confirmed by time course studies in which exogenous SIRT1 protein levels were monitored following inhibition of protein synthesis by cycloheximide. […] In intact cells exogenous SIRT1 protein was phosphorylated at S27 (FIG. 13c) and was also stable over 9 hr (FIGS. 13c and 13e). However, in JNK2-depleted cells exogenous SIRT1 protein lacked S27P (FIG. 13d) and protein levels declined with a half life of approximately 2 hrs (FIGS. 13d and 13e). We conclude that JNK2 is required, directly or indirectly, for phosphorylation of SIRT1 at S27 and that this is linked with stabilisation of SIRT1 protein in HCT116 cancer cells.

O=c1[nH]cc(F)c(=O)[nH]1 [5-FU, 5-fluorouracil]
apoptosis (HCT116 p53+/+ cells): apoptosis
acetylation of p53 (p53; ARPE-19 cells): undetectable
p53 response (p53; ARPE-19 cells): attenuated
p53 K382 acetylation (p53; HCT116 p53+/+ cells): induction
p53 response (p53; HCT116 p53+/+ cells): sustained
cell viability (ARPE-19 cells): remained viable
lamin A/C and GAPDH mRNA levels (laminA/C and GAPDH mRNAs): relatively unaffected
depletion of SIRT1 mRNA (SIRT1 mRNA; 5-FU (375 μM) for 24 h, ARPE-19 and HCT116 cells (FIG. 2a)): 80%
SIRT1 mRNA estimated t1/2 (SIRT1 mRNA; ARPE-19 cells): ~4 h
SIRT1 mRNA estimated t1/2 (SIRT1 mRNA; HCT116 cells): < 2 h
total SIRT1 protein levels (SIRT1; ARPE-19 cells): increased 6 h after 5-FU treatment and subsequently declined by 24 h
SIRT1 S27 phosphorylation (SIRT1; HCT116 p53+/+ cells): lost
total SIRT1 protein levels (SIRT1; HCT116 p53+/+ cells): stable over 12 h, but declined by 24 h post-treatment
SIRT1 S27 phosphorylation (SIRT1; HCT116 p53−/− cells): retained
total SIRT1 protein levels (SIRT1; HCT116 p53−/− cells): remains constant up to at least 48 h

JNK1 siRNA: siRNA: sense 5′-CUCCACCACCAAAGAUCCC(dTdT)-3′, antisense 5′-GGGAUCUUUGGUGGUGGAG(dTdT)-3′ (RNA, 3' dTdT, backbone not given here)
SIRT1 protein levels, S27 or S47 phosphorylation (SIRT1; ARPE-19, HCT116 p53+/+ or HCT116 p53−/− cells): no effect
total SIRT1 protein levels (SIRT1; ARPE-19 cells): no effect
exogenous expression of SIRT1 and its phosphorylation (exogenous SIRT1 protein; HCT116 p53+/+ cells): indistinguishable from the intact controls

JNK2 siRNA: siRNA: sense 5′-GAGCUGGUGAAAGGUUGUG(dTdT)-3′, antisense 5′-CACAACCUUU CACCAGCUC(dTdT)-3′ (antisense CACAACCUUUCACCAGCUC; RNA, 3' dTdT, backbone not given here)
SIRT1 mRNA levels (SIRT1 mRNA; ARPE-19 cells, 24-96 h post-transfection): remained constant
SIRT1 mRNA levels (SIRT1 mRNA; HCT116 p53+/+ cells): absence of any reduction
total SIRT1 protein levels (SIRT1; ARPE-19 cells): reduced levels of SIRT1 protein
SIRT1 S27 phosphorylation (SIRT1; HCT116 p53+/+ cells): loss of SIRT1 S27P
SIRT1 S47P (SIRT1; HCT116 p53+/+ cells): barely detectable
total SIRT1 protein levels (SIRT1; HCT116 p53+/+ cells): reduced SIRT1 protein levels
SIRT1 protein levels or phosphorylation status (SIRT1; HCT116 p53−/− cells): little effect
half life of exogenous SIRT1 protein (exogenous SIRT1 protein; HCT116 cells, following addition of cycloheximide): approximately 2 hrs
S27 phosphorylation of exogenous SIRT1 protein (exogenous SIRT1 protein; HCT116 p53+/+ cells): non-phosphorylated at S27
exogenous SIRT1 S47P (exogenous SIRT1 protein; HCT116 p53+/+ cells): clearly detectable
total exogenous SIRT1 protein levels (exogenous SIRT1 protein; HCT116 p53+/+ cells): reduced
